Key:
[1] = test system: TcCYP51; details: formerly reported; cited from earlier work
[2] = test system: T. cruzi Tulahuen trypomastigotes; assay: T. cruzi trypomastigote assay (Cell Titer-Glo viability, ATP luminescence); assay type: cell-based, Trypanosoma cruzi; details: for Trypomastigotes pIC50 48 hours: 48 hours incubation; for Trypomastigotes pIC50 48 hours / Trypomastigotes pIC50 72 hours: pIC50 = -log10 IC50 in molar units; for Trypomastigotes pIC50 72 hours: 72 hours incubation; for 48 pIC50 / 72 pIC50: trypomastigote assay; for 48 pIC50: 48 h; for 72 pIC50: 72 h
Procedure, shortened: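 Tulahuen trypomastigotes from infected LLC-MK2 culture supernatants (days 5–8) plated at 5 × 10^4 per well in DMEM/2% FBS with compound at 5 μM single-shot final or in dose response. Viability by CellTiter-Glo ATP luminescence after 10 min at room temperature, normalised to no-cell (100%) and DMSO (0%) controls.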

| SMILES | CYP51 pIC50 [1] | Trypomastigotes pIC50 48 hours [2] | Trypomastigotes pIC50 72 hours [2] | 48 pIC50 ([2]; figure 1A) | 72 pIC50 ([2]; figure 1A) | 72 pIC50 ([2]; figure 1B) |
| --- | --- | --- | --- | --- | --- | --- |
| CN(Cc1cccnc1)Cc1ccc(N2CCN(C(=O)C3(c4ccc(Cl)cc4)CC3)CC2)nc1 [TCMDC-143247] | 6.8 | 5.1 | 4.4 |  |  |  |
| O=C(Nc1nc(-c2ccc(S(=O)(=O)N3CCOCC3)cc2)cs1)c1ccc([N+](=O)[O-])cc1 [TCMDC-143282] | < 4 | 5.8 | 5.8 | 5.8 | 5.8 | 5.8 |
| O=C(COc1ncnc2cc([N+](=O)[O-])ccc12)NC(=O)NC1CCCCC1 [TCMDC-143564] | < 4 | 5.7 | 5.9 |  |  |  |
| O=c1ccn(-c2ccc([N+](=O)[O-])cc2Cl)c2ccc(F)cc12 [TCMDC-143520] | 4.8 | < 4.3 | < 4.3 | < 4.3 | < 4.3 | < 4.3 |
| CC1=NN(C(=O)CCn2cnc([N+](=O)[O-])n2)C(O)(C(F)(F)F)C1 (stereo not drawn) [TCMDC-143157] | < 4 | < 4.3 | < 4.3 | < 4.3 | < 4.3 | < 4.3 |
| O=S(=O)(c1ccccc1C(F)(F)F)N1CCN(Cc2ccc(-n3ccnc3)cc2)CC1 [TCMDC-143161] | 7 | < 4.3 | < 4.3 | < 4.3 | < 4.3 | < 4.3 |
| Cc1cc(C)c(C#N)c(SCC(=O)c2ccc3c(c2)OCO3)n1 [TCMDC-143625] | < 4 | 5.7 | 5.5 |  |  |  |
| CN(Cc1cc2ccccc2s1)c1ncc2c(N)nc(N)nc2n1 [TCMDC-143232] | < 4 | 5.3 | 5.5 |  |  |  |
| CC(C)(C)C(O)(CCc1ccc(Cl)cc1)Cn1cncn1 (stereo not drawn) [TCMDC-143614] | 6.9 | < 4.3 | < 4.3 | < 4.3 | < 4.3 | < 4.3 |
| O=C(NC(c1ccc(Cl)cc1)c1cnccn1)C1CCN(C(=O)Nc2cccc(C(F)(F)F)c2)CC1 (stereo not drawn) [TCMDC-143561] | 6.9 | < 4.3 | < 4.3 | < 4.3 | < 4.3 | < 4.3 |
| O=C(c1cnn(-c2ccccc2)n1)N1CCCC(n2ccnc2)C1 (stereo not drawn) [TCMDC-143492] | 7.1 | < 4.3 | < 4.3 | < 4.3 | < 4.3 | < 4.3 |

From article PMC8318231, “Rate-of-Kill (RoK) assays to triage large compound sets for Chagas disease drug discovery: Application to GSK Chagas Box” (PLoS Neglected Tropical Diseases, 2021)
